Results: article PMC6273621, “Synthesis and the Biological Activity of Phosphonylated 1,2,3-Triazolenaphthalimide Conjugates” (Molecules, 2016)
Like-named read-outs stand apart in the source and are kept apart here.

Legend:
[1] = system: TK+ VZV strain; test: microbe, parasite or virus in culture; type: cell-based, varicella-zoster virus (VZV) strain Oka; conditions: Human alphaherpesvirus 3, HEL, read-out: Antiviral Activity EC50, TK+ VZV Strain, HEL cell cultures; concentration reducing virus plaque formation by 50%
[2] = system: TK− VZV strain; test: microbe, parasite or virus in culture; type: cell-based, varicella-zoster virus (VZV) strain 07−1; conditions: Human alphaherpesvirus 3, HEL, read-out: Antiviral Activity EC50, TK− VZV Strain, HEL cell cultures; concentration reducing virus plaque formation by 50%
[3] = system: HEL cells; test: Cytotoxicity, cell morphology (MCC) in HEL cells; type: cell-based, human; conditions: minimum cytotoxic concentration causing microscopically detectable alteration of cell morphology
From the text: The cytotoxicity of the tested compounds toward the uninfected host cells was defined as the minimum cytotoxic concentration (MCC) that causes a microscopically detectable alteration of normal cell morphology.

[4] = system: murine leukemia (L1210) cells; test: Cytostatic activity, L1210 cell proliferation; type: cell-based; conditions: Mus musculus, read-out: IC50 L1210
Method: (§1) All assays were performed in 96-well microtiter plates. To each well were added (5–7.5) × 10^4 tumor cells and a given amount of the test compound. The cells were allowed to proliferate for 48 h (murine leukemia L1210 cells) or 72 h (human lymphocytic CEM and human cervix carcinoma HeLa cells) at 37 °C in a humidified CO2-controlled atmosphere. At the end of the incubation period, the cells were counted in a Coulter counter.

[5] = system: human T-lymphocyte (CEM) cells; test: Cytostatic activity, CEM cell proliferation; type: cell-based; conditions: CCRF-CEM, 72 h, read-out: IC50 CEM
Method: as §1

[6] = system: human cervix carcinoma cells (HeLa); test: Cytostatic activity, HeLa cell proliferation; type: cell-based; conditions: 72 h, read-out: IC50 HeLa
Method: as §1

[7] = system: human dermal microvascular endothelial HMEC-1 cells; test: Cytostatic activity, HMEC-1 cell proliferation; type: cell-based
[8] = system: L1210, CEM, HeLa and HMEC-1 cells; test: Cytostatic activity, overall statement on the tested cell lines; type: cell-based; conditions: naphthalimides devoid of the 1,2,3-triazole unit
Method: as §1

[9] = L1210, cell proliferation, 48 h
[10] = HMEC-1, cell proliferation, read-out: IC50 HMEC-1

Row | SMILES | EC50 [1] [µM] | EC50 [2] [µM] | Cytotoxicity, Cell Morphology (MCC) [3] [μM] | IC50 ([4]; L1210, 48 h) [µM] | IC50 [5] [µM] | IC50 [6] [µM] | IC50 ([7]; HMEC-1, read-out: IC50 HMEC-1) [µM] | melting point [°C] | IC50 [4, 9] [µM] | IC50 ([5]; cell proliferation) [µM] | IC50 ([6]; cell proliferation) [µM] | IC50 [7, 10] [µM] | Cytostatic activity (in words) [8]
1 | CCOP(=O)(CCCn1cc(CN2C(=O)c3cccc4cc([N+](=O)[O-])cc(c34)C2=O)nn1)OCC [Compound 16c, Diethyl 3-{4-[(5-Nitro-1,3-dioxo-1H-benzo[de]isoquinolin-2(3H)-yl)methyl]-1H-1,2,3-triazol-1-yl}propylphosphonate] | 32.8 | 47.8 | >100 | 34 ± 9 | 55 ± 23 | 29 ± 17 | 136 ± 22 | 113 to 114 |  |  |  |  | 
2 | CCOP(=O)(CCOCCn1cc(CN2C(=O)c3cccc4c(Br)ccc(c34)C2=O)nn1)OCC [Compound 15h, Diethyl 2-(2-{4-[(6-Bromo-1,3-dioxo-1H-benzo[de]isoquinolin-2(3H)-yl)methyl]-1H-1,2,3-triazol-1-yl}ethoxy)ethylphosphonate] | 37.1 | 70.8 | >100 | 26 ± 2 | 29 ± 11 | 61 ± 15 | 151 | 92 to 93 |  |  |  |  | 
3 | CCOP(=O)(CC(O)Cn1cc(CN2C(=O)c3cccc4cc([N+](=O)[O-])cc(c34)C2=O)nn1)OCC (stereo not shown) [Compound 16f, Diethyl 3-{4-[(5-Nitro-1,3-dioxo-1H-benzo[de]isoquinolin-2(3H)-yl)methyl]-1H-1,2,3-triazol-1-yl}-2-hydroxypropylphosphonate] | 56.7 | 91.5 | >100 | 68 ± 11 | 71 ± 21 | 42 ± 21 | 155 ± 6 | 176 to 177 |  |  |  |  | 
4 | C#CCN1C(=O)c2cccc3c(Br)ccc(c23)C1=O [Compound 8] |  |  |  |  |  |  |  |  | ≥ 250 | ≥ 250 | > 250 | > 250 | inactive
5 | CCOP(=O)(CCn1cc(CN2C(=O)c3cccc4c(Br)ccc(c34)C2=O)nn1)OCC [Compound 15b] | 34.2 | 38.1 | >100 | 14 ± 1 | 56 ± 20 | 62 ± 20 | 152 ± 1 | 132 to 134 |  |  |  |  | 
6 | CCOP(=O)(CCCCn1cc(CN2C(=O)c3cccc4c(Br)ccc(c34)C2=O)nn1)OCC [Compound 15d, Diethyl 4-{4-[(6-Bromo-1,3-dioxo-1H-benzo[de]isoquinolin-2(3H)-yl)methyl]-1H-1,2,3-triazol-1-yl}butylphosphonate] | 40.4 | 37.5 | 100 | 17 ± 3 | 22 | 55 ± 2 | 92 ± 43 |  |  |  |  |  | 
7 | CCOP(=O)(COCCn1cc(CN2C(=O)c3cccc4cc([N+](=O)[O-])cc(c34)C2=O)nn1)OCC [Compound 16g, Diethyl 2-{4-[(5-Nitro-1,3-dioxo-1H-benzo[de]isoquinolin-2(3H)-yl)methyl]-1H-1,2,3-triazol-1-yl}ethoxy-methylphosphonate] | 50.2 | > 100 | >100 | 71 ± 1 | 79 ± 4 | 76 ± 8 | 148 ± 3 | 89 to 90 |  |  |  |  | 
8 | CN(C)CCN1C(=O)c2cccc3cc(N)cc(c23)C1=O [Amonafide, reference compound] | 5.36 | 7.82 | 20 |  |  |  |  |  | 1 ± 0.4 | 0.54 ± 0.5 | 2 ± 1.2 | 0.31 | 
9 | CCOP(=O)(CCCn1cc(CN2C(=O)c3cccc4cccc(c34)C2=O)nn1)OCC [Compound 14c, Diethyl 3-{4-[(1,3-Dioxo-1H-benzo[de]isoquinolin-2(3H)-yl)methyl]-1H-1,2,3-triazol-1-yl}propylphosphonate] | > 100 | 64.5 | >100 | ≥ 250 | 124 ± 19 | 172 ± 20 | ≥ 250 | 131 to 132 |  |  |  |  | 
